Source: patent US6124380A, “Metal containing e-coat catalysts optionally with tin catalysts” (priority 1999, dated 2000)

Legend:
[1] = tested on: Daphnia; experiment: Aquatic Toxicity Daphnia; format: in vivo
Text: (§1) Generally, the toxicity of tin compounds increases as the organic substituents on the tin atom increase from one to two to three whereas there is a decrease in toxicity with increasing alkyl chain length where the organotin compound is alkyl substituted. However, the extraordinary decrease in toxicity in TOTO due to alkyl chain length is quite unexpected. The relatively low toxicity of TOTO which makes it especially suitable in industrial coating applications is illustrated by the following: […]

[2] = tested on: Flathead Minnow; experiment: Aquatic Toxicity Flathead Minnow; format: in vivo
Text: as §1

[3] = Toxicity of TOTO compared with TBTO; settings: in vivo
Text: as §1

[4] = tested on: Rats; experiment: Acute Oral toxicity; format: in vivo
Text: as §1

[5] = tested on: Rabbits; experiment: Primary Eye Irritation; format: in vivo
Text: as §1

[6] = tested on: Rabbits; experiment: Primary Dermal Irritation; format: in vivo
Text: as §1

[7] = tested on: Salmonella and E. Coli; experiment: Mutation Assays Ames/Salmonella and E. Coli; format: cell-based
Text: as §1

[8] = Acute Dermal toxicity; format: in vivo
Text: as §1

| SMILES | Aquatic Toxicity 48 h LC50 Daphnia (comment, TBTO) [1] [µg/mL] | Aquatic Toxicity 96 h LC50 Flathead Minnow (comment, TBTO) [2] [µg/mL] | Aquatic Toxicity 48 h LC50 Daphnia ([1]; solubility limit) | Toxicity relative to TBTO [3] | Acute Oral LD50 [4] [mg/kg] | Acute Oral, comment [4] | Primary Eye Irritation, comment ([5]; rabbits) | Primary Eye Irritation ([5]; score out of 110.0, rabbits) | Aquatic Toxicity 96 h LC50 Flathead Minnow ([2]; solubility limit) | Primary Dermal Irritation, comment ([6]; rabbits) | Primary Dermal Irritation ([6]; score out of 8.0, rabbits) | Mutation Assays [7] | Acute Dermal, comment ([8]; No more than Slightly) | Acute Dermal LD50 ([8]; in vivo, topical or ocular) [mg/kg] |
| --- | --- | --- | --- | --- | --- | --- | --- | --- | --- | --- | --- | --- | --- | --- |
| CCC[CH2][Sn]([CH2]CCC)([CH2]CCC)[O][Sn]([CH2]CCC)([CH2]CCC)[CH2]CCC [TBTO, Bis(tributyltin) oxide] | 0.002 | 0.05 | – | – | – | – | – | – | – | – | – | – | – | – |
| CCCCCCC[CH2][Sn]([CH2]CCCCCCC)([CH2]CCCCCCC)[O][Sn]([CH2]CCCCCCC)([CH2]CCCCCCC)[CH2]CCCCCCC [TOTO, Bis(trioctyltin)oxide] | – | – | > 87,000 ug/L | significantly less toxic than TBTO | > 5000 | Practically Nontoxic | Slightly Irritating | 2.6 | > 13,500 ug/L | Slightly Irritating | 1.75 | Not Mutagenic | Slightly | > 2000 |
